In PMC6915728 (Nature Communications, 2019):
Like-named read-outs stand apart in the source and are kept apart here.

Assays:
E. coli BW25113 ΔmlaD = assay: MIC, serial broth dilution, mlaD knockout strain vs wild type; format: cell-based, Escherichia coli; conditions: mlaD deletion strain relative to control (E. coli BW25113); 3 replicates each; from optical density values of serial dilution plates, AMP in µg ml-1
Experimental: What could be the mechanism behind the antagonistic action of this pathway on membrane- versus intracellular-targeting AMPs? Since MlaD is part of a protein complex, it may lead to a loss-of-function effect upon overexpression[41],[42]. To test this, we asked whether overexpression and deletion of mlaD cause similar changes in susceptibility to a representative set of membrane- and intracellular-targeting AMPs.
(§1) Minimum inhibitory concentrations (MIC) were determined with a standard serial broth dilution technique with a minor modification. Specifically, instead of a two-fold dilution series, smaller AMP concentration steps were used (typically 1.2-fold) for two reasons. […] Second, gene overexpressions caused typically only small changes in the MICs of AMPs and therefore higher resolution was required. The protocol was as follows. From a stock solution of an AMP, 12-steps serial dilution was prepared in fresh MS medium in 96-well microtiter plates. Each AMP was represented in 11 different concentrations (3 wells per AMP concentration per strain). Three wells contained only medium to check the growth in the absence of AMP. After overnight growth in MS medium supplemented with chloramphenicol, bacterial strains were diluted 20-fold into fresh MS medium and grown until the cell density reached OD600 ~1. Cells were induced by 100 µM of IPTG and incubated for 1 h at 30 °C with continuous shaking at 300 rpm. Following incubation, approximately half-million cells were inoculated into the wells of the 96-well microtiter plate with a 96‐pin replicator. We used three independent replicates for each strain and the corresponding control. Two rows in the 96-well plate contained only MS medium in order to obtain the background OD value of the medium. Plates were incubated at 30 °C with continuous shaking at 300 rpm. After 20–24 h of incubation, OD600 values were measured in a microplate reader (Biotek Synergy 2).
A mlaD knockout strain of E. coli BW25113 carrying a kanamycin resistance cassette in the position of the gene was selected from the KEIO collection. The resistance marker was removed using plasmid-borne (pFT-A) expression of FLP recombinase leading to excision of the kanamycin resistance cassette. Cassette excision was verified by a polymerase chain reaction using the primers mlaD_del_ver_Fw (5′- […]) and mlaD_del_ver_Rev (5′- […]).
Supplementary Figure 13. […] The bacterial susceptibility of the mutant to AMPs was tested by MIC determination. Growth is shown relative to growth in the absence of the corresponding AMP. The blue line represents the mlaD knockout strain and the orange line represents the control strain (wild-type E. coli BW25113). Error bars indicate the standard errors based on three biological replicates. Source data are provided in the Source Data file.

[1] = test system: E. coli BW25113 overexpression strains (ASKA plasmids); assay: Minimum inhibitory concentration (MIC), serial broth dilution, single-gene overexpression strains vs empty-vector control; format: cell-based, Escherichia coli; conditions: for Relative MIC: broth dilution, MS medium, 100 µM IPTG, 30 °C, 20-24 h, OD600, 3 replicates
Experimental: as §1

[2] = test system: bacterial species in which the gene showed activity; conditions: cited from earlier work
[3] = test system: AMP-evolved E. coli lines; conditions: ref Spohn et al 2019, cited from earlier work
Excerpt: Supplement 41467_2019_13618_MOESM13_ESM.xlsx, sheet "Figure 6 and S15" | column: A comprehensive dataset of antimicrobial susceptibility of AMP-adapted lines to antimicrobial peptides (AMPs).

bacterial membrane = conditions: literature mining; ref superscript numbers in the cell, listed in Supplementary Data 7 sheet References; cited from earlier work
Excerpt: Supplement 41467_2019_13618_MOESM10_ESM.xlsx, sheet "AMP details" | column: Pore formation

[4] = overexpression strain narY, MIC of overexpression strain / MIC of empty-plasmid control

## GIINTLQKYYRVRGGRAVLSLPKEEQIGKSTRGRKRRKK [HBD3, Human beta-defensin-3, human host-defense peptide; cluster C2]
E. coli BW25113 ΔmlaD
  Average relative change in MIC: 1.56
[1]; mlaD overexpression strain relative to control (wild-type+empty vector), 3 replicates each, from optical density values of serial dilution plates, AMP in µg ml-1
  Average relative change in MIC: 1.75
[1]; overexpression strain hyfA, MIC of overexpression strain / MIC of empty-plasmid control
  Relative MIC: 0.8
[1]; overexpression strain mlaD, MIC of the overexpression strain / MIC of the control strain (wild-type carrying the empty plasmid)
  Relative MIC: >1.55
[1]; [4]
  Relative MIC: 0.8
[2]; Staphylococcus epidermidis, ref http://onlinelibrary.wiley.com/doi/10.1046/j.1462-5822.2004.00367.x/epdf
  Gene that modulates bacterial susceptibility to the AMP: icaA(ica operon)

## Peptide glycine-leucine amide [PGLA]
[3]; AMP-adapted line BAC5_3
  Relative change in MIC (MIC of the AMP-adpated line / MIC of the ancestral strain): 1.4
[3]; AMP-adapted line BAC5_5
  Relative change in MIC (MIC of the AMP-adpated line / MIC of the ancestral strain): 1.1
[3]; AMP-adapted line BAC5_7
  Relative change in MIC (MIC of the AMP-adpated line / MIC of the ancestral strain): 0.9
[3]; AMP-adapted line BAC5_10
  Relative change in MIC (MIC of the AMP-adpated line / MIC of the ancestral strain): 1.3
[3]; AMP-adapted line CAP18_2
  Relative change in MIC (MIC of the AMP-adpated line / MIC of the ancestral strain): 2.5
[3]; AMP-adapted line CAP18_5
  Relative change in MIC (MIC of the AMP-adpated line / MIC of the ancestral strain): 5.2
[3]; AMP-adapted line CAP18_6
  Relative change in MIC (MIC of the AMP-adpated line / MIC of the ancestral strain): 1.6
[3]; AMP-adapted line CAP18_8
  Relative change in MIC (MIC of the AMP-adpated line / MIC of the ancestral strain): 3
[3]; AMP-adapted line CAP18_10
  Relative change in MIC (MIC of the AMP-adpated line / MIC of the ancestral strain): 4.3
[3]; AMP-adapted line HBD3_3
  Relative change in MIC (MIC of the AMP-adpated line / MIC of the ancestral strain): 2.3
[3]; AMP-adapted line HBD3_6
  Relative change in MIC (MIC of the AMP-adpated line / MIC of the ancestral strain): 3.6
[3]; AMP-adapted line HBD3_8
  Relative change in MIC (MIC of the AMP-adpated line / MIC of the ancestral strain): 3.3
[3]; AMP-adapted line HBD3_10
  Relative change in MIC (MIC of the AMP-adpated line / MIC of the ancestral strain): 1.9
[3]; AMP-adapted line LL37_1
  Relative change in MIC (MIC of the AMP-adpated line / MIC of the ancestral strain): 1.4
[3]; AMP-adapted line LL37_3
  Relative change in MIC (MIC of the AMP-adpated line / MIC of the ancestral strain): 1.9
[3]; AMP-adapted line LL37_6
  Relative change in MIC (MIC of the AMP-adpated line / MIC of the ancestral strain): 1.8
[3]; AMP-adapted line LL37_7
  Relative change in MIC (MIC of the AMP-adpated line / MIC of the ancestral strain): 5.2
[3]; AMP-adapted line LL37_10
  Relative change in MIC (MIC of the AMP-adpated line / MIC of the ancestral strain): 1.8
[3]; AMP-adapted line PEX_1
  Relative change in MIC (MIC of the AMP-adpated line / MIC of the ancestral strain): 3.5
[3]; AMP-adapted line PEX_4
  Relative change in MIC (MIC of the AMP-adpated line / MIC of the ancestral strain): 3.5
[3]; AMP-adapted line PEX_5
  Relative change in MIC (MIC of the AMP-adpated line / MIC of the ancestral strain): 1.9
[3]; AMP-adapted line PEX_6
  Relative change in MIC (MIC of the AMP-adpated line / MIC of the ancestral strain): 2.1
[3]; AMP-adapted line PEX_7
  Relative change in MIC (MIC of the AMP-adpated line / MIC of the ancestral strain): 2.9
[3]; AMP-adapted line PR39_1
  Relative change in MIC (MIC of the AMP-adpated line / MIC of the ancestral strain): 1.6
[3]; AMP-adapted line PR39_2
  Relative change in MIC (MIC of the AMP-adpated line / MIC of the ancestral strain): 1.5
[3]; AMP-adapted line PR39_5
  Relative change in MIC (MIC of the AMP-adpated line / MIC of the ancestral strain): 0.8
[3]; AMP-adapted line PR39_7
  Relative change in MIC (MIC of the AMP-adpated line / MIC of the ancestral strain): 1.5
[3]; AMP-adapted line PR39_10
  Relative change in MIC (MIC of the AMP-adpated line / MIC of the ancestral strain): 0.4
[3]; AMP-adapted line PROA_2
  Relative change in MIC (MIC of the AMP-adpated line / MIC of the ancestral strain): 1.6
[3]; AMP-adapted line PROA_3
  Relative change in MIC (MIC of the AMP-adpated line / MIC of the ancestral strain): 1.1
[3]; AMP-adapted line PROA_7
  Relative change in MIC (MIC of the AMP-adpated line / MIC of the ancestral strain): 0.6
[3]; AMP-adapted line PROA_8
  Relative change in MIC (MIC of the AMP-adpated line / MIC of the ancestral strain): 1.2
[3]; AMP-adapted line PROA_9
  Relative change in MIC (MIC of the AMP-adpated line / MIC of the ancestral strain): 0.9
[3]; AMP-adapted line PXB_2
  Relative change in MIC (MIC of the AMP-adpated line / MIC of the ancestral strain): 1.8
[3]; AMP-adapted line PXB_5
  Relative change in MIC (MIC of the AMP-adpated line / MIC of the ancestral strain): 1.5
[3]; AMP-adapted line PXB_6
  Relative change in MIC (MIC of the AMP-adpated line / MIC of the ancestral strain): 8
[3]; AMP-adapted line PXB_8
  Relative change in MIC (MIC of the AMP-adpated line / MIC of the ancestral strain): 4.5
[3]; AMP-adapted line PXB_10
  Relative change in MIC (MIC of the AMP-adpated line / MIC of the ancestral strain): 5.5
Bacterial membrane
  Pore formation (whether AMP makes pores in the bacterial membrane): Yes10,11
[1]; overexpression strain gadW, MIC of overexpression strain / MIC of empty-plasmid control
  Relative MIC: 0.63
[1]; overexpression strain lptB, MIC of overexpression strain / MIC of empty-plasmid control
  Relative MIC: 1.66
[1]; overexpression strain mlaC, MIC of overexpression strain / MIC of empty-plasmid control
  Relative MIC: 1.3
[1]; overexpression strain mzrA, MIC of overexpression strain / MIC of empty-plasmid control
  Relative MIC: 1.2
[1]; [4]
  Relative MIC: 0.8
[1]; overexpression strain nikB, MIC of overexpression strain / MIC of empty-plasmid control
  Relative MIC: 1.25
[1]; overexpression strain ptsN, MIC of overexpression strain / MIC of empty-plasmid control
  Relative MIC: 0.71
[1]; overexpression strain uhpC, MIC of overexpression strain / MIC of empty-plasmid control
  Relative MIC: 1.25
[2]; Salmonella typhimurium, Salmonella typhi, ref http://www.sciencedirect.com/science/article/pii/S009286740081750X
  Gene that modulates bacterial susceptibility to the AMP: pagP
